Laboratory results from ChEMBL document CHEMBL1201862, “PubChem BioAssay data set” (2004).
“And” between values parts separate entries of the source, which are not always exact repeats. Identical values can stand only once. Each block holds one molecule with its values, some of them ahead of it. The source made the active and inactive calls.

Key:
[1] = target: Serine/threonine-protein kinase PLK3 (Homo sapiens, UniProt Q9H4B4); assay type: functional
[2] = target: Serine/threonine-protein kinase Chk2 (Homo sapiens, UniProt O96017); assay type: functional;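 further: CHEK2 entry within a kinome-wide screening panel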
Sequence of Serine/threonine-protein kinase Chk2 (O96017 whole entry): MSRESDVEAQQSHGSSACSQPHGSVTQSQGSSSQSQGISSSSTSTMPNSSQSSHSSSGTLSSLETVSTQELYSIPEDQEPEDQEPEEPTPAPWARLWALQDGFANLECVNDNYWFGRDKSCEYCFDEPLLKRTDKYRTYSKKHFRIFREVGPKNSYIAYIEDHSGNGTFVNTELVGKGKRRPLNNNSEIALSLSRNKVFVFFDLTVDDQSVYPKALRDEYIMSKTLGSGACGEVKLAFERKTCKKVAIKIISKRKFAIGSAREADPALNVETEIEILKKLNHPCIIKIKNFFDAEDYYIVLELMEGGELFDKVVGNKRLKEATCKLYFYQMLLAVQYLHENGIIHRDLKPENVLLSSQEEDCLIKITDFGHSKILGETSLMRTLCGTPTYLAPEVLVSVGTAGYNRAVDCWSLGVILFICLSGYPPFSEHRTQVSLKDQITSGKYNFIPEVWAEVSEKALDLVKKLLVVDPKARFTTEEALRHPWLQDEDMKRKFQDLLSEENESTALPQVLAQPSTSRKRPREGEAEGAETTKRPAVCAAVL

[3] = target: Calcium/calmodulin-dependent protein kinase type II subunit delta (Homo sapiens, UniProt Q13557); assay type: functional
Sequence of Calcium/calmodulin-dependent protein kinase type II subunit delta (Q13557 whole entry): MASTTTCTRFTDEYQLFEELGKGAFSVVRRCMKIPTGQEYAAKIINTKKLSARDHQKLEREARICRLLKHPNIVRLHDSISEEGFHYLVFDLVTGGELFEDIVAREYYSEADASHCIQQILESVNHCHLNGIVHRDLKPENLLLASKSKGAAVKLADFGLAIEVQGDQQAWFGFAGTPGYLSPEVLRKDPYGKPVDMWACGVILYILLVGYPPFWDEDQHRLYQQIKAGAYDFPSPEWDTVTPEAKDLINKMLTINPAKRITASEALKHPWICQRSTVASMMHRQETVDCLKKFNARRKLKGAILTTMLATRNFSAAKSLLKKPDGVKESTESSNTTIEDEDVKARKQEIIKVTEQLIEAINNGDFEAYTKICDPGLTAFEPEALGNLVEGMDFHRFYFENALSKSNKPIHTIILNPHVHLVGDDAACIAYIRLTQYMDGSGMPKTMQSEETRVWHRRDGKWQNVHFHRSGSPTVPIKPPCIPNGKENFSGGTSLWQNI

[4] = target: Tyrosine-protein kinase JAK3 (Homo sapiens, UniProt P52333); assay type: functional
[5] = target: Protein kinase C gamma type (Homo sapiens, UniProt P05129); assay type: functional
[6] = target: Glycogen synthase kinase-3 alpha (Homo sapiens, UniProt P49840); assay type: functional;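 further: GSK3A result taken from a broad kinome-wide kinase panel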
Sequence of Glycogen synthase kinase-3 alpha (P49840 whole entry): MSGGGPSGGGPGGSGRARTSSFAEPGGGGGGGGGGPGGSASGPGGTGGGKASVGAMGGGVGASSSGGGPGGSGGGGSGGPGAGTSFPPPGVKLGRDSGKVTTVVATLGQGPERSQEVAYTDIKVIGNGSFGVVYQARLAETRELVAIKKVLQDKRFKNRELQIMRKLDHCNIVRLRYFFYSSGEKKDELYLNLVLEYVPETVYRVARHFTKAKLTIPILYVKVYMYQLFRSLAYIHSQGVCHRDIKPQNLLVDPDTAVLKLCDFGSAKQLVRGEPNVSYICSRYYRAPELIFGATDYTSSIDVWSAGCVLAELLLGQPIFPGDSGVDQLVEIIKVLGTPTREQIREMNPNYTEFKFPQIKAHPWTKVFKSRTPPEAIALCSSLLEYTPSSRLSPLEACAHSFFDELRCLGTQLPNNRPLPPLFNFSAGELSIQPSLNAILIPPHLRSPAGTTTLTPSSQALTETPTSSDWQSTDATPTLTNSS

[7] = target: Mitogen-activated protein kinase kinase kinase kinase 2 (Homo sapiens, UniProt Q12851); assay type: functional;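 further: measured as one member of a kinome-wide kinase panel, with MAP4K2 as the panel entry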
Sequence of Mitogen-activated protein kinase kinase kinase kinase 2 (Q12851 whole entry): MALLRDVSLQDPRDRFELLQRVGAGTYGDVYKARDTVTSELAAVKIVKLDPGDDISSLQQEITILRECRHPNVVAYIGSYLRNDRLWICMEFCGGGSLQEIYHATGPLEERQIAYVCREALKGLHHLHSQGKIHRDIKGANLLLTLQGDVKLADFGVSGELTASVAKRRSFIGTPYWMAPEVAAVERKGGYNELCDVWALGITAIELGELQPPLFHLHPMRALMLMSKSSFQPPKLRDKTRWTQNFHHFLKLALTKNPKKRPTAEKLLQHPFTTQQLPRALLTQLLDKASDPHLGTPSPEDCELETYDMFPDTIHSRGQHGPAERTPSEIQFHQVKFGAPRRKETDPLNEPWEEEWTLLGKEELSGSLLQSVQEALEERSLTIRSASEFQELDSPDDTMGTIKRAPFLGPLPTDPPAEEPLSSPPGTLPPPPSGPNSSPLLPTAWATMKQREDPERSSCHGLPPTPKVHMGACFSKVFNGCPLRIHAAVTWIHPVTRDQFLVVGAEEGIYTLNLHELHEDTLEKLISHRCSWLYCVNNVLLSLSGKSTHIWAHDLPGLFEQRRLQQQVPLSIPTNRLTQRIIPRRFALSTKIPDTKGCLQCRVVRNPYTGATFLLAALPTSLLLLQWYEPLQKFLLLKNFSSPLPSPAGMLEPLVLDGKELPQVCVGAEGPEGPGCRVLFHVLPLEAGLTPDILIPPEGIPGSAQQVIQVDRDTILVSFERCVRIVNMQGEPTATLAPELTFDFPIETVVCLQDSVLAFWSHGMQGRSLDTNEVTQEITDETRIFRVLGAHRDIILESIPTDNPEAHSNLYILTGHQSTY

[8] = target: MAP kinase-activated protein kinase 3 (Homo sapiens, UniProt Q16644); assay type: functional;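 further: value comes from a kinome-wide profiling panel in which MAPKAPK3 is one of the panel members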
[9] = target: Vascular endothelial growth factor receptor 3 (Homo sapiens, UniProt P35916); assay type: functional;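 further: value from a kinome-wide profiling panel, with FLT4 as the panel member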
[10] = target: Serine/threonine-protein kinase PLK1 (Homo sapiens, UniProt P53350); assay type: functional;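 further: PLK1 measured as one member of a kinome-wide profiling panel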
[11] = target: Serine/threonine-protein kinase NLK (Homo sapiens, UniProt Q9UBE8); assay: Navigating the Kinome. Panel member name: NLK; assay type: functional
[12] = viability of HCT116 lacking mutant beta-catenin – cell-based, human colon tumor, dose response (AID 1045); assay type: functional;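 further: HCT116 colon tumor cells with beta catenin knocked out; cells exposed to compound for 60 hours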
[13] = target: T1, Phosphomannomutase 2 (Homo sapiens, UniProt O15305); assay: Counter screen SAR assay for PMM2 inhibitors via a fluorescence intensity assay. [Related pubchem assays (depositor defined):AID1545, AID1574]
T1 sequence (O15305 whole entry): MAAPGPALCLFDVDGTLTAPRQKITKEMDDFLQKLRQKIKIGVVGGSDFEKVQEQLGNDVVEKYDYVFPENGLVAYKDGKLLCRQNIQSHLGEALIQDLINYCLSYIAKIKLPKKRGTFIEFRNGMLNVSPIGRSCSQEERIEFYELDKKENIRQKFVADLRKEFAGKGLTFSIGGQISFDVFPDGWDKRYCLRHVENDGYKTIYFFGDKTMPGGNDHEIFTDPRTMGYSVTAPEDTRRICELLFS

[14] = target: T2, Rac GTPase-activating protein 1 (Homo sapiens, UniProt Q9H0H5); assay: blockers of MgcRacGAP-driven Rac1 GTP hydrolysis – biochemical, ADP Hunter fluorescence, primary and confirmatory, confirmation (AID 624330); assay type: functional
T2 sequence (Q9H0H5 whole entry): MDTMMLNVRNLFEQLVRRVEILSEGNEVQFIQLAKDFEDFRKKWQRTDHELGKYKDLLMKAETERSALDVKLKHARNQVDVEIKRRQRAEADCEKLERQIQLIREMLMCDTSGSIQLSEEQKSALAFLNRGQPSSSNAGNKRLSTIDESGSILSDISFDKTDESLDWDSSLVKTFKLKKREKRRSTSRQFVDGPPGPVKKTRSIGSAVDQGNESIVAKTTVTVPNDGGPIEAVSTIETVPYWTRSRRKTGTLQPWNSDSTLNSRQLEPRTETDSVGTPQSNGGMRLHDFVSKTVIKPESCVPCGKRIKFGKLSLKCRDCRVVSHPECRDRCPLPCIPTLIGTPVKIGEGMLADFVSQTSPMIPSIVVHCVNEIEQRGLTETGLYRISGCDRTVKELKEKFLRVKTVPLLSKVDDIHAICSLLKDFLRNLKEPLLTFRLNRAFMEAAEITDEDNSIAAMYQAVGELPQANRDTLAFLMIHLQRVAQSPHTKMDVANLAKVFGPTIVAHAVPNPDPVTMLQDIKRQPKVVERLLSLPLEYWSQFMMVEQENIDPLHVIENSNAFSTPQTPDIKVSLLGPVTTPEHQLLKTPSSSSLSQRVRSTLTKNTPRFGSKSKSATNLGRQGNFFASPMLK

[15] = target: Paired box protein Pax-8 (Homo sapiens, UniProt Q06710); assay: PAX8 transcriptional activity inhibition in RMG-I – RMG-I cells, luciferase, cherry-pick, dose response (AID 687027); assay type: functional, cell-based;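 further: luciferase reporter driven by Pax8 target thyroperoxidase promoter measured by SteadyGlo luminescence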
Sequence of Paired box protein Pax-8 (Q06710 whole entry): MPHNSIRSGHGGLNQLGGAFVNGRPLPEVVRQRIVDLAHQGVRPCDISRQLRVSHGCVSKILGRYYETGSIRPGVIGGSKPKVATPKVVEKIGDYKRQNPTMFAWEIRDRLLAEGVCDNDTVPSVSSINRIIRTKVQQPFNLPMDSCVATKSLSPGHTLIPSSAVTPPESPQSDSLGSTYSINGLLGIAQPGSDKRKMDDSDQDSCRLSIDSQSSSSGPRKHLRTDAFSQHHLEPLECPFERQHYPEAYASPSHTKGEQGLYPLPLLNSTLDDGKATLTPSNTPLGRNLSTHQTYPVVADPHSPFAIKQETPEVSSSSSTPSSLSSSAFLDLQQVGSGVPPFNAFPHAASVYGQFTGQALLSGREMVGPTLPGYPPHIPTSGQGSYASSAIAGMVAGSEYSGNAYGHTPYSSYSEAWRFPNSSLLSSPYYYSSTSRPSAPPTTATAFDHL

[16] = target: DNA (cytosine-5)-methyltransferase 1 (Homo sapiens, UniProt P26358); assay: inhibition of DNA methylation by DNMT1 – biochemical, fluorescent molecular beacon, confirmation (AID 602386); assay type: functional
Sequence of DNA (cytosine-5)-methyltransferase 1 (P26358 whole entry): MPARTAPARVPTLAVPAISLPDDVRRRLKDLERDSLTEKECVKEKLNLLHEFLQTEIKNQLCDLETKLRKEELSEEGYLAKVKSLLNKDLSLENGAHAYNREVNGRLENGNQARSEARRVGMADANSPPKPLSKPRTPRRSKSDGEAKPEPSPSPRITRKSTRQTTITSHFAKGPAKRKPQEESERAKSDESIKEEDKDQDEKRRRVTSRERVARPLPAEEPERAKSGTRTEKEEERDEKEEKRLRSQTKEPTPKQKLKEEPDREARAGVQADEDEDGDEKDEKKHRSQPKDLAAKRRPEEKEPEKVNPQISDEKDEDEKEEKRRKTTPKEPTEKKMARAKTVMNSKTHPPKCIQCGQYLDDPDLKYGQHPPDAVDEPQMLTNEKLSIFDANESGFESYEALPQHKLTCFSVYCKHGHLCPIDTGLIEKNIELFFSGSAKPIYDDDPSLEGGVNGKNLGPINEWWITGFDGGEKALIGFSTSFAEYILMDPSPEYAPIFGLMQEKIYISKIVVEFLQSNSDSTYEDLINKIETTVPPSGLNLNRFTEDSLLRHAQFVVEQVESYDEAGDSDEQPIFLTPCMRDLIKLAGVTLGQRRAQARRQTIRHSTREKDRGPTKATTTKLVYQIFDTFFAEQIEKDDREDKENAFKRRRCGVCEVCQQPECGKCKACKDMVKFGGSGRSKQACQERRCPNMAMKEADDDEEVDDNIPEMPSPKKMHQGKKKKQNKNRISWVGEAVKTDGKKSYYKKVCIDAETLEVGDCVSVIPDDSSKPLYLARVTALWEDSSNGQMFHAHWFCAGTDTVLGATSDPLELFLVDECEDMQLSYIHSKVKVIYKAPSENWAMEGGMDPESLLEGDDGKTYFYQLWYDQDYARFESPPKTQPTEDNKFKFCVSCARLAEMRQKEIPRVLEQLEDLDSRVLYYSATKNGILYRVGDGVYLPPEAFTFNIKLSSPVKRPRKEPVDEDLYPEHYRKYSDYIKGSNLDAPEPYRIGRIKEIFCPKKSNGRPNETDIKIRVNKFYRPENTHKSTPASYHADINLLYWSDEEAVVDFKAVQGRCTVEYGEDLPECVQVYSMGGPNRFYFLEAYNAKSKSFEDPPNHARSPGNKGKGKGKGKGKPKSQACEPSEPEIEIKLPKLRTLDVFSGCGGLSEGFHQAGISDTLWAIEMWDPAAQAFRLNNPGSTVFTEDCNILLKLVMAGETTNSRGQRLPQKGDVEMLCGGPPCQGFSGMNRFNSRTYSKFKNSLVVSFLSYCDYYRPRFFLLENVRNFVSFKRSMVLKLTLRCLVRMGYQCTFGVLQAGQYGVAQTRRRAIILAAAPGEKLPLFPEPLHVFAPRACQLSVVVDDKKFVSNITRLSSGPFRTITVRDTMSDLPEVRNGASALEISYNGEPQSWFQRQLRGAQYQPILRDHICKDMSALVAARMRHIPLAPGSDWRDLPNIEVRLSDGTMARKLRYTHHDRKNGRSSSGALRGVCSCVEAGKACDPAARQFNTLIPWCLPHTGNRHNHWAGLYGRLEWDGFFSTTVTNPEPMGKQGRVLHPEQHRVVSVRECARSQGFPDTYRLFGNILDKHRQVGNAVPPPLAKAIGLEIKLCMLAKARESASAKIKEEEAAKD

[17] = target: T3, Sentrin-specific protease 6 (Homo sapiens, UniProt Q9GZR1); assay type: functional;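 further: Luminescence-based dose-response confirmatory assay of SENP6 inhibition, following up an ultra-high-throughput screen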
T3 sequence (Q9GZR1 whole entry): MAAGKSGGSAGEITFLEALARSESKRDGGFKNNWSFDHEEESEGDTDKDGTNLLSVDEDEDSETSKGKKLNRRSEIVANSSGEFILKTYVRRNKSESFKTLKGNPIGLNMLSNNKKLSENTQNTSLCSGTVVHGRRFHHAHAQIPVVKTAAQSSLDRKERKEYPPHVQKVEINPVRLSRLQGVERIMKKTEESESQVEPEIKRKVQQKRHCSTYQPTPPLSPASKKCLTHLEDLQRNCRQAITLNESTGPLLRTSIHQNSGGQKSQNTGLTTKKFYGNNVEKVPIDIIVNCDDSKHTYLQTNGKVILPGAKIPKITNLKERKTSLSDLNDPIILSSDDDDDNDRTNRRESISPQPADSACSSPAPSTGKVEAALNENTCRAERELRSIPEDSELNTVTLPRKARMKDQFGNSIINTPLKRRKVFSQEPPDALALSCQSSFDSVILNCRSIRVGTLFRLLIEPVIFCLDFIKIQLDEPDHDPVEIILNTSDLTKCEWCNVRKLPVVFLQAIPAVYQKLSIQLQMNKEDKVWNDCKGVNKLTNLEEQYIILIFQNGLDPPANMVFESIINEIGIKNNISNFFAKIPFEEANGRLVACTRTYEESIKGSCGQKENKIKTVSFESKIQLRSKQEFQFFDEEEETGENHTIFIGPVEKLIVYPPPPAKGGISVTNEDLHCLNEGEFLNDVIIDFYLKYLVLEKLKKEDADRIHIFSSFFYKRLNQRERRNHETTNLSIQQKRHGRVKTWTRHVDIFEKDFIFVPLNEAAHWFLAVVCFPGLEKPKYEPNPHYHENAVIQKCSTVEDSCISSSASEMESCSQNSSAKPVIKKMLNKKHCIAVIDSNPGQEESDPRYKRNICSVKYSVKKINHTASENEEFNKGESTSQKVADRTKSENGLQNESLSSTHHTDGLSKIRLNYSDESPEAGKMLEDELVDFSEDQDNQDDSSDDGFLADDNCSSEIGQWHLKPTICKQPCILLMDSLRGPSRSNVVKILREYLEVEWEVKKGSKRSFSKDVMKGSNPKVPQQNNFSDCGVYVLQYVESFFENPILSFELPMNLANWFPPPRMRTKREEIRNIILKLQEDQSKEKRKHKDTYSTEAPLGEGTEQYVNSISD

Sequence of Serine/threonine-protein kinase PLK3 (Q9H4B4 whole entry): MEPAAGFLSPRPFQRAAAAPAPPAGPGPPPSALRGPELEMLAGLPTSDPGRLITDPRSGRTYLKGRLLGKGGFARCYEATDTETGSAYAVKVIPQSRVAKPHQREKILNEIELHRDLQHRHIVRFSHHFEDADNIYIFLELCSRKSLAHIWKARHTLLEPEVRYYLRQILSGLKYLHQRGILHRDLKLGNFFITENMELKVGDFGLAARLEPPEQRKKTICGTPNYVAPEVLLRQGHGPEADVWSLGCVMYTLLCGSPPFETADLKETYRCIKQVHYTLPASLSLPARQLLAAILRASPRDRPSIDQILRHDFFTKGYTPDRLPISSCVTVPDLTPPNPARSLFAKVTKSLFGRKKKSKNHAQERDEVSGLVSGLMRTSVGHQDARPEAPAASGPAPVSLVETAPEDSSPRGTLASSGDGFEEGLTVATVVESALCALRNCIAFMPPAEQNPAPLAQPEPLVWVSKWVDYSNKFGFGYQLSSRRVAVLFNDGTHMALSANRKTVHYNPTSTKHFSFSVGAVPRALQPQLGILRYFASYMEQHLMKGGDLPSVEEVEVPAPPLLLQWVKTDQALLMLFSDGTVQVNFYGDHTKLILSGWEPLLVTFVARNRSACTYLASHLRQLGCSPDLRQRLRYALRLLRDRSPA

Ki [1]: 2 µM (active)
Ki [2]: 1.26 µM (active)
Ki [3]: > 6.31 µM (inactive)
Ki [4]: > 1.58 µM (inactive)
Ki [5]: > 7.94 µM (inactive)
Ki [6]: > 7.94 µM (inactive)
Ki [7]: 2 µM (active)
Ki [8]: > 10 µM (inactive)
Ki [9]: 0.158 µM (active)
Ki [10]: > 7.94 µM (inactive)
Ki [11]: 0.02 µM (active)
SMILES: Cc1cccc(NC(=O)Nc2ccc3c(c2)CCc2sc4ncnc(N)c4c2-3)c1

SMILES: Cc1ccc(-n2sc3ccccc3c2=O)cc1
EC50 [12]: 24.4 µM (active)
IC50 [13]: > 100 µM (inactive) and 38 µM (active)
IC50 [14]: 87.4 µM (active)

SMILES: CCC(=O)NC(c1ccc(C)cc1)c1ccc2cccnc2c1O (configuration not stated)
AC50 [15]: 1.81 µM (active)

SMILES: N/C(=N\N=C/c1ccc(-c2ccc(O)c(C(=O)O)c2)o1)N[N+](=O)[O-]
IC50 [16]: 3.94 µM (active)

SMILES: CC(=O)N(/N=C1\Sc2ccccc2C1=O)c1ccccc1C
IC50 [17]: 1.91 µM (active)
